# Assay results reported in patent publication US4350700A, “Pharmaceutical composition containing 1,3,5-substituted biuret compound” (Taiho Pharmaceutical Company, Limited, priority 1979, dated 1982).
# Where two headings read alike, the source gives them in different places.
# Legend:
# [1] = system: pain reaction of the mouse caused by a clamp; assay: Analgesic activity, Haffner method; format: in vivo, mice (ddy strain, male); settings: for ED50: Mus musculus, oral, mice (Δ values; range in parentheses), read-out: Analgesic activity, Haffner method, 50% effective dose ED50; for Analgesic activity, Haffner method, inhibitory ratio: mice
# Experimental: (§1) Next, several tests for determining the pharmacological properties, in that acute toxicity, anti-pyretic activity, analgesic activity and anti-inflammatory activity of the present 1,3,5-substituted biuret compounds of the formula (1) were conducted and the test results are shown in Table (2). In the tests, each compounds to be tested was used as a suspension in 0.25% carboxymethylcellulose solution. Methods for testing are explained as follows:
# According to the modified method reported by Fujimura et al., [Bulletin of the Institute for Chemical Research, Kyoto University, No. 25, pp. 36 (1951)], the ddy strain of male mice (body weight, 20-25 g) were used as test animals. The mice were fasted overnight, 100 mg/kg body weight of the test compound was administered orally, then 45 minutes after the administration, the threshhold amount (1.5-2.5 mg/kg body weight) of morphine hydrochloride was injected subcutaneously. Then 1-hour pain reaction of the mouse caused by a clamp was observed. Analgesic activity of the test compound was calculated as the inhibitory ratio (%). In Table 2, the values in parentheses show the data obtained from the test by using the dosage other than 100 mg/kg body weight. Further, the values indicated with Δ marks show 50% effective dose, ED50 (mg/kg body weight).
# [2] = Acute toxicity (oral, general symptom and death observed for 7 days); format: in vivo, mice (ddy strain, male); settings: mouse, in vivo; oral, mice, 7 days observation (Δ values); read-out: Acute toxicity, 50% lethal dose LD50
# Experimental: as §1
# (§2) The ddy strain of male mice (body weight, 20-25 g) were used as test animals. The mice were fasted overnight and the compound to be tested was administered orally. […] The lethal dose (mg/kg, body weight) of the test compound was determined in connection with the death number of mice/the number of mice tested. In Table 2, the values indicated with Δ marks are 50% lethal dose, LD50 (mg/kg, body weight).
# [3] = system: 10% dry-yeast suspension-induced fever of rats; assay: Anti-pyretic activity (dry-yeast induced fever, febril index); format: in vivo, rats (Wistar strain, male); settings: oral, febril index up to 4 hours after administration, dose not stated
# Experimental: as §1
# According to the method reported by Tanabe [Folia Pharmacologia Japonica, Vol. 73, pp. 803 (1977)], the Wistar strain of male rats (150-180 g body weight) were used as test animals. The rats were fasted overnight, and 1 ml/100 g (body weight) of 10% dry-yeast suspension were subcutaneously injected on the back of the rats. Five hours afte the injection, the test compound was administered orally, then the body temperature of the rat was measured time sequences. Anti-pyretic activity of the test compound was determined as the FI (febril index) by integrating pyrogenetic curve up to 4 hours after the administration of the test compound with time, and indicated as inhibitory ratio (%) shown by the following formula, [formula]
# [4] = system: acetic acid-induced stretching symptom of mouse; assay: Analgesic activity, acetic acid-induced stretching method; format: in vivo, mice (ddy strain, male); settings: for ED50: oral, mice (Δ values; range in parentheses), read-out: Analgesic activity, acetic acid-induced stretching method, 50% effective dose ED50
# Experimental: as §1
# (1) Acetic acid-induced stretching method
# According to the method reported by Koster et.al., [Fed. Proc., Vol. 18, pp. 412 (1959)], the ddy strain of male mice (body weight, 20-25 g) were used as test animals. The mice were fasted overnight, 100 mg/kg body weight of the test compound was administered orally, then 1 hour after the administration, 0.2 ml of 0.7% acetic acid solution was injected intraperitoneally. The acetic acid-induced stretching symptom of mouse was observed. Analgesic activity of the test compound was calculated as the inhibitory ratio (%). In Table 2, the values in parentheses show the data obtained from the test by using the dosage other than 100 mg/kg body weight. Further, the values indicated with Δ marks show 50% effective dose, ED50 (mg/kg body weight).
# [5] = system: carrageenin-induced inflammation of the hindpaw of the rat; assay: Anti-inflammatory activity, acute carrageenin-induced inflammatory test; format: in vivo, rats (Wistar strain, male); settings: Rattus norvegicus, read-out: Anti-inflammatory activity, inflammation inhibitory ratio
# Experimental: as §1
# 4. Anti-inflammatory Activity
# According to the method of acute carrageenin-induced inflammatory test [Folia Pharmacologia Japonica, Vol. 56, pp. 575 (1960)], the Wistar strain of male rats (body weight, 150-180 g) were used as test animals. The rats were fasted overnight, 100 mg/kg body weight of the test compound was administered orally, then 1 hour after the administration, 0.1 ml of 1% carrageenin solution, as the inflammation inducing agent, was injected subcutaneously to the hindpaw of the rat and the volume of the hindpaw was measured at time sequences. Anti-inflammatory activity of the test compound was calculated as inflammation inhibitory ratio (%) at 3 hours after the injection of inflammation inducing agent.
# [6] = system: ddy strain of male mice; assay: Acute toxicity (oral, general symptom and death observed for 7 days); format: in vivo; settings: 2000 mg/kg oral, 7 days
# Experimental: as §1, §2
# [7] = 100 mg/kg oral, rats, 3 hours after carrageenin
# [8] = po, read-out: Analgesic activity, acetic acid-induced stretching method, inhibitory ratio
structure (smiles),measurement,setting,value
"CNC(=O)N(C)C(=O)Nc1ccccc1 [Compound No. 3, 1,3-dimethyl-5-phenylbiuret]",ED50,[1],111 mg/kg
same,LD50 at 168 h,[2],1450 mg/kg
same,"Anti-pyretic activity, inhibitory ratio",[3],145%
same,ED50,[4],35 mg/kg
same,inhibition in vivo at 100 mg/kg,[5]; [7],88%
"CNC(=O)N(C)C(=O)Nc1ccc(OC)cc1 [Compound No. 8, 1,3-Dimethyl-5-(4-methoxyphenyl)-biuret]","Analgesic activity, Haffner method, inhibitory ratio",[1]; 100 mg/kg oral,50%
same,LD50 at 168 h,[2],1440 mg/kg
same,"Anti-pyretic activity, inhibitory ratio",[3],110%
same,inhibition in vivo at 100 mg/kg,"[4]; 100 mg/kg oral, mice, read-out: Analgesic activity, acetic acid-induced stretching method, inhibitory ratio",87.5%
same,inhibition in vivo at 100 mg/kg,[5]; [7],40%
"CNC(=O)N(C)C(=O)Nc1ccccn1 [Compound No. 14, 1,3-dimethyl-5-(2-pyridyl)biuret]",ED50,[1],145 mg/kg
same,LD50 at 168 h,[2],656 mg/kg
same,inhibition in vivo at 100 mg/kg,[4]; [8],62.5%
same,inhibition in vivo at 100 mg/kg,[5]; [7],54%
"CNC(=O)N(C)C(=O)Nc1cccnc1 [Compound No. 15, 1,3-Dimethyl-5-(3-pyridyl)-biuret]","Analgesic activity, Haffner method, inhibitory ratio",[1]; 100 mg/kg oral,62.5%
same,LD50 at 168 h,[2],1100 mg/kg
same,"Anti-pyretic activity, inhibitory ratio",[3],94%
same,ED50,[4],44 mg/kg
same,inhibition in vivo at 100 mg/kg,[5]; [7],37%
"CCNC(=O)N(C)C(=O)Nc1ccccc1 [Compound No. 31, 1-ethyl-3-methyl-5-phenylbiuret]",ED50,[1],105 mg/kg
same,LD50 at 168 h,[2],1590 mg/kg
same,"Anti-pyretic activity, inhibitory ratio",[3],149%
same,ED50,[4],70 mg/kg
same,inhibition in vivo at 100 mg/kg,[5]; [7],63%
"CCNC(=O)N(C)C(=O)Nc1cc(OC)c(OC)c(OC)c1 [Compound No. 37, 1-Ethyl-3-methyl-5-(3,4,5-trimethoxyphenyl)biuret]",ED50,[1],46 mg/kg
same,LD50 at 168 h,[2],749 mg/kg
same,"Anti-pyretic activity, inhibitory ratio",[3],97%
same,inhibition in vivo at 100 mg/kg,[4]; [8],75%
CNC(=O)N(C)C(=O)Nc1ccc(Cl)cc1 [compound 6],"Analgesic activity, Haffner method, inhibitory ratio",[1]; 100 mg/kg oral,50%
same,LD50 at 168 h,[2],1240 mg/kg
same,"Anti-pyretic activity, inhibitory ratio",[3],72%
same,ED50,[4],40 mg/kg
same,inhibition in vivo at 100 mg/kg,"[5]; po, 3 h",43%
"CNC(=O)N(C)C(=O)Nc1ccc2c(c1)OCO2 [compound 9, 1,3-Dimethyl-5-(3,4-methylenedioxyphenyl)biuret]","Analgesic activity, Haffner method, inhibitory ratio",[1]; 100 mg/kg oral,25%
same,LD50 at 168 h,[2],1080 mg/kg
same,"Anti-pyretic activity, inhibitory ratio",[3],38%
same,inhibition in vivo at 100 mg/kg,[4]; [8],87.5%
same,inhibition in vivo at 100 mg/kg,[5]; [7],46%
CNC(=O)N(C)C(=O)Nc1ccncc1 [compound 16],"Analgesic activity, Haffner method, inhibitory ratio",[1]; 100 mg/kg oral,25%
same,LD50 at 168 h,[2],1100 mg/kg
same,inhibition in vivo at 100 mg/kg,[4]; [8],62.5%
same,inhibition in vivo at 100 mg/kg,[5]; [7],34%
"CNC(=O)N(C)C(=O)Nc1ncccn1 [compound 19, 1,3-Dimethyl-5-(2-pyrimidinyl)biuret]","Analgesic activity, Haffner method, inhibitory ratio",[1]; 100 mg/kg oral,37.5%
same,LD50 at 168 h,[2],1400 mg/kg
same,"Anti-pyretic activity, inhibitory ratio",[3],6%
same,inhibition in vivo at 100 mg/kg,[4]; [8],50%
"CCNC(=O)NC(=O)Nc1ccc(OC)cc1 [compound 28, 1-Ethyl-5-(4-methoxyphenyl)biuret]","Analgesic activity, Haffner method, inhibitory ratio",[1]; 200 mg/kg oral,37.5%
same,LD50 at 168 h,[2],1600 mg/kg
same,inhibition in vivo at 200 mg/kg,[4]; [8],37.5%
same,inhibition in vivo at 200 mg/kg,"[5]; 200 mg/kg oral, rats, 3 hours after carrageenin",75%
"CCNC(=O)N(C)C(=O)Nc1ccc(OC)c(OC)c1 [compound 36, 1-Ethyl-3-methyl-5-(3,4-dimethoxyphenyl)biuret]","Analgesic activity, Haffner method, inhibitory ratio",[1]; 100 mg/kg oral,62.5%
same,LD50 at 168 h,[2],833 mg/kg
same,"Anti-pyretic activity, inhibitory ratio",[3],43%
same,inhibition in vivo at 100 mg/kg,[4]; [8],50%
same,inhibition in vivo at 100 mg/kg,"[5]; po, 3 h",23%
CCNC(=O)N(C)C(=O)Nc1cccs1 [compound 40],"Analgesic activity, Haffner method, inhibitory ratio",[1]; 100 mg/kg oral,37.5%
same,LD50 at 168 h,[2],559 mg/kg
same,"Anti-pyretic activity, inhibitory ratio",[3],42%
same,inhibition in vivo at 100 mg/kg,[4]; [8],75%
same,inhibition in vivo at 100 mg/kg,"[5]; po, 3 h",24%
C=CCNC(=O)NC(=O)Nc1ccccc1 [compound 44],"Analgesic activity, Haffner method, inhibitory ratio",[1]; 100 mg/kg oral,50%
same,LD50 at 168 h,[2],1400 mg/kg
same,inhibition in vivo at 100 mg/kg,[4]; [8],62.5%
same,inhibition in vivo at 100 mg/kg,"[5]; po, 3 h",33%
"CCC(C)NC(=O)N(C)C(=O)Nc1ccccc1 (centres unmarked) [compound 50, 1-(1-Methylpropyl)-3-methyl-5-phenylbiuret]","Analgesic activity, Haffner method, inhibitory ratio",[1]; 100 mg/kg oral,25%
same,"Acute toxicity, death number of mice/number of mice tested",[6],0/4
same,"Anti-pyretic activity, inhibitory ratio",[3],27%
same,inhibition in vivo at 100 mg/kg,[4]; [8],62.5%
same,inhibition in vivo at 100 mg/kg,"[5]; po, 3 h",47%
"CN(C(=O)Nc1ccccc1)C(=O)NC(C)(C)C [compound 51, 1-tert-Butyl-3-methyl-5-phenylbiuret]","Analgesic activity, Haffner method, inhibitory ratio",[1]; 100 mg/kg oral,37.5%
same,"Acute toxicity, death number of mice/number of mice tested",[6],0/4
same,"Anti-pyretic activity, inhibitory ratio",[3],83%
same,inhibition in vivo at 100 mg/kg,[4]; [8],50%
same,inhibition in vivo at 100 mg/kg,[5]; [7],34%
